{"source": "patent US11510886B2", "about": "“Metformin amino acid compounds and methods of using the same” (Laboratorios Silancs S.A. DE C.V., priority 2016, dated 2022)", "key": {"[1]": {"system": "rat model of streptozotocin-induced diabetes", "settings": "about 18 hours after last administration, fasted; Dunnet test"}, "[2]": {"system": "blood glucose level", "experiment": "Effect of metformin compounds on the glucokinetic profile after oral glucose overload", "assay_type": "in vivo, Rat", "settings": "rat, 750 mg/kg referred to metformin base, mean ± SD"}, "[3]": {"settings": "terms of European Pharmacopeia 7.0 section 5.11"}, "[4]": {"settings": "diabetic rats, 14 days daily oral"}, "[5]": {"settings": "STZ-diabetic male rats, mean ± SD"}, "[6]": {"settings": "for Body weight (g) On distribution day: before dosing"}, "[7]": {"system": "rat model of streptozotocin-induced diabetes", "experiment": "Blood glucose levels in rat model of streptozotocin-induced diabetes, 14 days oral"}, "[8]": {"settings": "rat, in vivo, po, 250 mg/kg"}, "[9]": {"system": "GPBP, LKB1/STRADα/MO25, AMPK, AS160", "experiment": "In vitro phosphorylation of GPBP with LKB1 complex, AMPK and AS160", "settings": "LKB1 complex without GPBP"}, "[10]": {"system": "GLUT4", "experiment": "GPBP-1 and GLUT4 distribution in C2C12 cells (FIGS. 77 and 78)", "assay_type": "cell-based, Mice", "experimental": "FIG. 77. Effects of no treatment, insulin, SLN1, SLN1 and insulin, SLN10, and SLN10 and insulin on GPBP-1 and GLUT-4 distribution in non-fused C2C12 cells after a 30 minute treatment.\nFIG. 78. C2C12 cells that expressed GLUT4-GFP constitutively were incubated with SLN1 or SLN10 10 mM, or with the corresponding vehicle (control), and GLUT4 distribution was analyzed by using immunofluorescence and confocal microscopy."}, "[11]": {"settings": "before first TI/RI administration"}, "[12]": {"settings": "Groups B-K, 250 mg/kg, Mean ± SD"}}, "note": "Where two headings read alike, the source gives them in different places.", "data": [{"smiles": "CC(C)[C@H](N)C(=O)O.CN(C)C(=N)NC(=N)N", "note": "[Metformin valinate, metformin valinate]", "values": [{"measurement": "plasma glucose levels at the time of sacrifice", "setting": "[1]", "result": "significantly higher"}, {"measurement": "Blood glucose level, 0.25 h post-glucose overload", "setting": "[2]; 0.25 h post-glucose overload, *p<0.05 vs vehicle", "result": "102.50 ± 12.07", "unit": "mg/dL"}, {"measurement": "Blood glucose level, 0.5 h post-glucose overload", "setting": "[2]; 0.5 h post-glucose overload", "result": "101.00 ± 14.90", "unit": "mg/dL"}, {"measurement": "Blood glucose level, 1 h post-glucose overload", "setting": "[2]; 1 h post-glucose overload, *p<0.05 vs vehicle", "result": "100.25 ± 15.44", "unit": "mg/dL"}, {"measurement": "Blood glucose level, 2 h post-glucose overload", "setting": "[2]; 2 h post-glucose overload", "result": "97.00 ± 14.54", "unit": "mg/dL"}, {"measurement": "Blood glucose level, 3 h post-glucose overload", "setting": "[2]; 3 h post-glucose overload, *p<0.05, **p<0.01 vs vehicle", "result": "93.50 ± 18.91", "unit": "mg/dL"}, {"measurement": "Blood glucose level, 4 h post-glucose overload", "setting": "[2]; 4 h post-glucose overload, *p<0.05 vs vehicle", "result": "86.50 ± 10.15", "unit": "mg/dL"}, {"measurement": "Blood glucose level, 6 h post-glucose overload", "setting": "[2]; 6 h post-glucose overload", "result": "92.75 ± 5.56", "unit": "mg/dL"}, {"measurement": "Blood glucose level, pre-glucose overload", "setting": "[2]; pre-glucose overload, *p<0.05 vs vehicle", "result": "90.25 ± 3.86", "unit": "mg/dL"}, {"measurement": "Physical form (hygroscopicity)", "setting": "[3]; listed as 14. VALINE", "result": "Hygroscopic solid"}, {"measurement": "Physical form (hygroscopicity)", "setting": "[3]; listed as valine", "result": "hygroscopic"}, {"measurement": "mortality", "setting": "[4]", "result": "found dead on the day 9 of study"}, {"measurement": "Absolute body weight, Day −3 (before STZ administration)", "setting": "[5]; baseline before STZ and before first TI/RI administration", "result": "233.50 ± 9.71", "unit": "g"}, {"measurement": "Absolute body weight, Day −1", "setting": "[5]; [11]", "result": "213.90 ± 16.31", "unit": "g"}, {"measurement": "Absolute body weight, Day −2 (distribution of groups)", "setting": "[5]; [11]", "result": "217.43 ± 14.43", "unit": "g"}, {"measurement": "macroscopic necropsy findings", "setting": "[6]; 750 mg/kg for five days", "result": "small additional lobe"}, {"measurement": "Body weight (g) On administration day", "setting": "[6]; [12]", "result": "193.85 ± 7.65", "unit": "g"}, {"measurement": "Body weight (g) On distribution day", "setting": "[6]; [12]", "result": "186.67 ± 11.37", "unit": "g"}, {"measurement": "Body weight (g) On distribution day", "setting": "[6]; Groups L-U, 750 mg/kg, Mean ± SD", "result": "190.28 ± 6.26", "unit": "g"}, {"measurement": "Body weight (g) On first administration day", "setting": "[6]; Groups L-U, 750 mg/kg, first column of this head, Mean ± SD", "result": "206.48 ± 10.52", "unit": "g"}, {"measurement": "Body weight (g) On first administration day", "setting": "[6]; Groups L-U, 750 mg/kg, second column of this head, Mean ± SD", "result": "194.90 ± 4.71", "unit": "g"}, {"measurement": "Blood glucose levels before TI/RI administration, Day −1", "setting": "[7]; STZ-diabetic rats, before first TI/RI administration, mean ± SD, n.d. = all values beyond ULOD of glucometer (600 mg/dl), § n=1, ¢ n=2", "result": "592.00^§ ± n.d.^§ mg/dL"}, {"measurement": "blood glucose levels 2 hours after administration on day 2 vs diabetic animals treated with vehicle", "setting": "[7]; diabetic rats, 250 mg/kg as metformin base", "result": "significantly lower blood glucose levels"}, {"measurement": "Blood glucose levels before TI/RI administration, Day −3 (before STZ administration)", "setting": "[7]; rats, baseline before STZ and before first TI/RI administration, mean ± SD", "result": "120.00 ± 1.73", "unit": "mg/dL"}, {"measurement": "AUC(0-24)", "setting": "[8]", "result": 123.05, "unit": "µg·h/mL"}, {"measurement": "Cmax", "setting": "[8]", "result": 13.7, "unit": "µg/mL"}, {"measurement": "Metformin base concentration in plasma, 0.5 h post-administration", "setting": "[8]", "result": "8.75 ± 0.50", "unit": "µg/mL"}, {"measurement": "Metformin base concentration in plasma, 1 h post-administration", "setting": "[8]", "result": "11.56 ± 2.71", "unit": "µg/mL"}, {"measurement": "Metformin base concentration in plasma, 2 h post-administration", "setting": "[8]", "result": "12.90 ± 2.38", "unit": "µg/mL"}, {"measurement": "Metformin base concentration in plasma, 4 h post-administration", "setting": "[8]", "result": "13.70 ± 2.55", "unit": "µg/mL"}, {"measurement": "Metformin base concentration in plasma, 8 h post-administration", "setting": "[8]", "result": "4.79 ± 0.38", "unit": "µg/mL"}, {"measurement": "Metformin base concentration in plasma, 24 h post-administration", "setting": "[8]", "result": "0.21 ± 0.09", "unit": "µg/mL"}]}, {"smiles": "CN(C)C(=N)N=C(N)N", "note": "[metformin, 3-(diaminomethylidene)-1,1-Dimethylguanidine]", "values": [{"measurement": "LKB1 autophosphorylation and STRADα phosphorylation", "setting": "[9]", "result": "trigger a discrete LKB1 autophosphorylation"}, {"measurement": "GLUT4 distribution", "setting": "[10]", "result": "levels lower than insulin"}]}]}
